Measurements from patent US20070248705A1, “Agents for Activating the Transcription Factor Nrf2 and Foods Having Such Function” (KIRIN BEER KABUSHIKI KAISHA, priority 2004, published 2007).

Assays:
[1] = test system: CD36; experiment: Expression of genes controlled by Nrf2 in RAW264.7: CD36; format: cell-based, mouse; conditions: RAW264.7, 25 μM, 20 hours
Experimental: (§1) A mouse macrophage cell line RAW264.7 was seeded on a φ60 mm dish (9×10^5 cells), 2 ml of a D-MEM medium (Invitrogen) supplemented with 10% fetal bovine serum (HyClone) and penicillin-streptomycin (100 units/ml and 100 μg/ml, respectively; Sigma) was added, and the dish was incubated at 37° C. in an atmosphere of 5% CO2 for 2 days. The medium was replaced with a fresh medium containing individual samples and incubation was continued for another 20 hours. Then, the total RNA was prepared using TRIzol (Invitrogen) and purified using a RNeasy Mini kit (Qiagen) and an RNase-free DNase set (Qiagen). Further, cDNA was synthesized from 5 μg of the purified total RNA using a Thermo Script RT-PCR system (Invitrogen), and the amount of mRNA expression of various genes was determined using a FastStart DNA Master SYBR Green I kit (Roche) and a Light Cycler (Roche).
(§2) The amount of expression of the various genes was corrected by the amount of expression of the housekeeping gene PO and calculated as a relative expression level (n=2, mean±standard deviation). […]

[2] = test system: thioredoxin reductase 1 (TXNRD1); experiment: Expression of genes controlled by Nrf2 in RAW264.7: TXNRD1; format: cell-based, mouse; conditions: RAW264.7, 25 μM, 20 hours
Experimental: as §1, §2

[3] = test system: heme oxygenase 1 (HO1); experiment: Expression of genes controlled by Nrf2 in RAW264.7: HO1; format: cell-based, mouse; conditions: RAW264.7, 25 μM, 20 hours
Experimental: as §1, §2

[4] = test system: NAD(P)H:quinone oxidoreductase (NQO1); experiment: Expression of genes controlled by Nrf2 in RAW264.7: NQO1; format: cell-based, mouse; conditions: RAW264.7, 25 μM, 20 hours
Experimental: as §1, §2

[5] = test system: glutamate cysteine ligase modifier subunit (GCLM); experiment: Expression of genes controlled by Nrf2 in RAW264.7: GCLM; format: cell-based, mouse; conditions: RAW264.7, 25 μM, 20 hours
Experimental: as §1, §2

[6] = test system: mouse macrophage cell line RAW264.7; experiment: Suppressive action on cell death by hydrogen peroxide; format: cell-based; conditions: RAW264.7, 25 μM, 2 hours
Experimental: A mouse macrophage cell line RAW264.7 (6×10^4 cells/well) was incubated on a 96-well plate in 100 μl of a D-MEM medium (Invitrogen) containing individual samples, 10% fetal bovine serum (HyClone), and penicillin-streptomycin (100 units/ml and 100 μg/ml, respectively; Sigma) at 37° C. in an atmosphere of 5% CO2 overnight. The samples added were isohumulone (IH(F)) and isohumulone (IcH(G)) at a concentration of 25 μM. Hydrogen peroxide (Wako Pure Chemical Industries) was added hereto at a final concentration of 0.8 or 1.0 mM and incubation was continued for another 2 hours. Then, adsorption at 440 nm was measured using a microplate reader (Power Wave 200, Bio-Tek Instruments) with a cell growth reagent WST-1 (Roche Diagnostics). The cell survival rate for each sample was calculated by setting the value without hydrogen peroxide as 100% (n=2, mean±standard variation). As a positive control, 15dPGJ2 (Cayman Chemical) was used.

[7] = test system: TNF-α; experiment: Suppression of TNF-α production by macrophages (TPA and IFN-γ); format: cell-based, mouse; conditions: RAW264.7, TPA 400 nM and IFN-γ 10 units/ml, 5, 10, 20, and 40 μM, 24 hours
Experimental: A mouse macrophage cell line RAW264.7 (4×10^4 cells/well) was seeded on a 96-well plate, […] of a D-MEM medium (Invitrogen) containing each sample, 10% fetal bovine serum (HyClone), and penicillin-streptomycin (100 units/ml and 100 μg/ml, respectively; Sigma) was added, and the plate was incubated at 37° C. in an atmosphere of 5% CO2 for 4 hours. Then 150 μl of a medium containing TPA (phorbol 12-tetradecanoate 13-acetate, Sigma), mouse IFN-γ (interferon-γ, eBioscience), and each sample was added and incubation was carried out for 24 hours. TPA and IFN-γ were added at a final concentration of 400 nM and 10 units/ml, respectively. As samples, isomerized hop extract was added at a concentration of 5, 10, 20, and 30 μ/ml and isohumulone (IH(F)) and isohumulone (IcH(G)) were added individually at a concentration of 5, 10, 20, and 40 μM.
After completing incubation, the amount of TNF-α in the culture fluid was measured using a mouse TNF-α ELISA kit(eBioscience). The amount of TNF-α was expressed as a relative value by setting the value for the control as 100% (n=3, mean±standard variation). As a positive control, 15dPGJ2 (Cayman Chemical) was used.

SMILES: CC(C)=CCC(=O)C1(O)C(O)=C(C(=O)CC(C)C)C(=O)C1CC=C(C)C (centres unmarked) [IH (F), isohumulone]
- expression of CD36 [1]: augmented the expression
- expression of TRNRD1 [2]: augmented the expression
- expression of HO1 [3]: augmented the expression
- expression of NQO1 [4]: augmented the expression
- expression of GCLM [5]: augmented the expression
- cell death by hydrogen peroxide (cell survival rate) ([6]; hydrogen peroxide 0.8 mM): suppressed cell death
- cell death by hydrogen peroxide (cell survival rate) ([6]; hydrogen peroxide 1.0 mM): suppressed cell death
- TNF-α production [7]: concentration-dependently suppressed
